# How the values were obtained:
# [1] = Stress studies: stability of tablets made with stressed VEL SSD/VOX SSD (water, residual solvent, peroxide, reprocessing, potency; Tables 16-21); assay type: physicochemical
# Protocol: The impact of the following stressors on the physical and chemical stability of the sofosbuvir/velpatasvir SSD/voxilaprevir SSD tablets were evaluated:
# (i) Voxilaprevir SSD and velpatasvir SSD, and sofosbuvir/velpatasvir SSD/voxilaprevir SSD tablet water content;
# (ii) Copovidone peroxide content in velpatasvir SSD and in voxilaprevir SSD (iii) Reprocessed velpatasvir SSD and voxilaprevir SSD;
# (iv) Voxilaprevir SSD and velpatasvir SSD potency (varying the ratio of velpatasvir or voxilaprevir to copovidone); and
# (v) Seeding sofosbuvir/velpatasvir SSD/voxilaprevir SSD tablets with crystalline voxilaprevir Form VIII and Form X drug substances.
# [2] = Tablet dissolution, 50 mM sodium acetate buffer pH 5.0 with 2.0% w/v Polysorbate 80, USP Type II, 75 rpm; assay type: physicochemical; details: for dissolution at 30 minutes: after 4 weeks open at 40° C./75% RH
# Protocol: FIGS. 10-12 depict additional dissolution profiles for the sofosbuvir/velpatasvir SSD/voxilaprevir SSD tablets having the formulation described in Table 13 and which were used in phase 1, 2, and 3 clinical studies, where the dissolution testing was conducted at pH 5.0 acetate buffer containing 2.0% w/v polysorbate 80. Four batches of the sofosbuvir/velpatasvir SSD/voxilaprevir SSD tablets were tested, with Batch A manufactured at 100 kg and Batches B, C and D manufactured at 145 kg. All other aspects of the formulation and manufacturing process were otherwise equivalent. […] Moreover, for Batch A, the amount dissolved at 30 min remained between 98 and 100% for sofosbuvir, between 90 and 92% for velpatasvir SSD, and between 89 and 93% for voxilaprevir SSD. […] For Batch D, the amount dissolved at 30 min remained at 100% for sofosbuvir, between 90 and 91% for velpatasvir SSD, and between 89 and 91% for voxilaprevir SSD. Release of velpatasvir SSD and voxilaprevir SSD from the sofosbuvir/velpatasvir SSD/voxilaprevir SSD tablets associated with all four Batches was complete after 60 minutes.
# [3] = Velpatasvir pharmacokinetics after single and multiple oral doses (Table 1); assay type: in vivo, human; details: for t1/2 / tlast / tmax: median
# Protocol: Following single and multiple oral doses of velpatasvir, maximum plasma concentrations occurred between 1.50 and 3.25 hours (median tmax).
# [4] = Chemical and physical stability of Formulation G film-coated tablets Lots A and B (Tables 11A, 11B); assay type: physicochemical; details: packaged Formulation G tablets; 40° C./75% RH and 25° C./60% RH for 6 months
# Protocol: In some embodiments, the film-coated tablets were packaged in 75 and 100 mL white HDPE bottles (Lots A and B, respectively, as described in Tables 11A, 11B) with 1 g silica gel desiccant canisters and a polyester fiber coil. The 75 and 100 mL HDPE bottles contained fourteen and twenty eight tablets, respectively. Each HDPE bottle was capped using a continuous thread, child-resistant polypropylene screw cap with an […], aluminum-faced line. The packaged tablets (14 and 28 counts) were evaluated for stability at 40° C./75% RH and 25° C./60% RH. Additionally, the 14-count bottles (without cap) were evaluated for stability under open conditions at 40° C./75% RH.
# [5] = Tablet dissolution as a function of medium pH and composition (FIGS. 13-15); assay type: physicochemical; details: for dissolution from tablets: pH 2.0, 4.5 and 6.8 buffers, FaSSIF and FeSSIF; for dissolution from tablets at 60 minutes: pH 4.0 and 5.0 containing 2.0% w/v polysorbate 80
# [6] = BCS classification and pH dependence of solubility; assay type: physicochemical
# [7] = Photostability of tablet cores and film-coated tablets per ICH Q1B (Table 12); assay type: physicochemical; details: for level of degradation products: tablets film-coated to weight gains 2.1 to 5.4%; for loss after exposure to light: uncoated tablet cores
# Protocol: Tablet cores and film-coated tablets were evaluated per ICH Q1B guidelines with a total of illumination of more than 1.2 million-lux hours and a total irradiance of more than 200 W·hr/m^2.
# [8] = Impact of desiccant and packaging configuration on tablet stability (Tables 24A-24C); assay type: physicochemical; details: desiccant study (0, 1, 3 g); all conditions, 6 months;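 note: stability of tablets stored with different desiccant amounts and packaging configurations, evaluating physical and chemical stability plus dissolution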
# [9] = Voxilaprevir Form VI pharmacokinetics after single and multiple doses in healthy subjects (Table 2); assay type: in vivo, human; details: for Ctau: mean
# Protocol: Pub. No. 2015/0175625 A1. Initial studies were conducted using the crystalline Form VI of voxilaprevir. As described previously, Form VI of voxilaprevir is characterized by an X-ray powder diffractogram comprising the following peaks (±0.2°): at 14.6, 15.4, and 20.0 °2θ, as determined on a diffractometer using Cu—Kα radiation. Following single and multiple oral doses of voxilaprevir, Form VI, maximum plasma concentrations occurred between 2.0 and 5.0 hours (median tmax). […] Steady-state concentrations of voxilaprevir, Form VI were achieved after 7 days of once-daily dosing across all dose levels (Table 2).
# [10] = Relative bioavailability of voxilaprevir amorphous free acid tablets vs Form VI tablets, fasted and fed, healthy subjects (Table 3); assay type: in vivo, human; details: human, in vivo, oral, single dose 100 mg, healthy subjects, fasted
# Description: Accordingly, a spray dried dispersion of voxilaprevir in the amorphous free acid form was selected for incorporation into the tablet formulation.
# [11] = SSD potency study, tablet Lots A-D, all conditions
# [12] = tablets from VEL SSD 6.0% residual ethanol and VOX SSD 2.1% residual acetone, all conditions
# [13] = tablets from VEL SSD 7.0% and VOX SSD 3.2% water content, all conditions
smiles,measurement,setting,value
"COC[C@H]1C[C@@H](c2ncc(-c3ccc4c(c3)COc3cc5c(ccc6nc([C@@H]7CC[C@H](C)N7C(=O)[C@@H](NC(=O)OC)C(C)C)[nH]c65)cc3-4)[nH]2)N(C(=O)[C@H](NC(=O)OC)c2ccccc2)C1 [velpatasvir, methyl {(2S)-1-[(2S,5S)-2-(9-{2-[(2S,4S)-1-{(2R)-2-[(methoxycarbonyl)amino]-2-phenylacetyl}-4-(methoxymethyl)pyrrolidin-2-yl]-1H-imidazol-5-yl}-1,11-dihydroisochromeno[4′,3′:6,7]naphtho[1,2-d]imidazol-2-yl)-5-methylpyrrolidin-1-yl]-3-methyl-1-oxobutan-2-yl}carbamate]",total impurities/degradation products,[1]; [11],0.0%
same,total impurities/degradation products,[1]; tablets from SSDs with copovidone 544 ppm (VEL SSD) and 655 ppm (VOX SSD) peroxides,0.0%
same,total impurities/degradation products,[1]; [12],0.0%
same,total impurities/degradation products,[1]; [13],0.0%
same,dissolution at 30 minutes,[2]; potency study Lot A,86%
same,dissolution at 30 minutes,[2]; potency study Lot B,91%
same,dissolution at 30 minutes,[2]; potency study Lots C and D,89-93%
same,release of velpatasvir at 30 minutes,[2]; tablets containing neat amorphous velpatasvir free base,62%
same,release of velpatasvir at 30 minutes,[2]; tablets containing velpatasvir SSD,91%
same,CLss/F,"[3]; multiple dose 5 mg, mean","36,095.7 mL/h"
same,Cmax,"[3]; multiple dose 5 mg, mean",28.3 ng/mL
same,t1/2,[3]; multiple dose 5 mg,13.73 h
same,tlast,[3]; multiple dose 5 mg,24.00 h
same,tmax,[3]; multiple dose 5 mg,2.00 h
same,CLss/F,"[3]; multiple dose 50 mg, mean","19,593.0 mL/h"
same,Cmax,"[3]; multiple dose 50 mg, mean",411.4 ng/mL
same,Ctau,"[3]; multiple dose 50 mg, mean",37.9 ng/mL
same,t1/2,[3]; multiple dose 50 mg,13.02 h
same,tlast,[3]; multiple dose 50 mg,24.00 h
same,CLss/F,"[3]; multiple dose 150 mg, mean","45,082.3 mL/h"
same,Cmax,"[3]; multiple dose 150 mg, mean",669.4 ng/mL
same,Ctau,"[3]; multiple dose 150 mg, mean",63.4 ng/mL
same,t1/2,[3]; multiple dose 150 mg,15.15 h
same,tlast,[3]; multiple dose 150 mg,24.00 h
same,CLss/F,"[3]; multiple dose 450 mg, mean","58,804.6 mL/h"
same,Cmax,"[3]; multiple dose 450 mg, mean",1195.7 ng/mL
same,Ctau,"[3]; multiple dose 450 mg, mean",127.7 ng/mL
same,t1/2,[3]; multiple dose 450 mg,11.74 h
same,tlast,[3]; multiple dose 450 mg,24.00 h
same,tmax,[3]; multiple dose 450 mg,3.00 h
same,mean plasma concentration at 24 hours postdose relative to protein-adjusted EC50 for genotype 1 to 6 HCV replicons,[3]; multiple once-daily doses greater than 5 mg,above
same,CL/F,"[3]; single dose 5 mg, mean","58,398.0 mL/h"
same,tlast,[3]; single dose 5 mg,24.00 h
same,CL/F,"[3]; single dose 50 mg, mean","19,188.4 mL/h"
same,Clast,"[3]; single dose 50 mg, mean",2.34 ng/mL
same,tlast,[3]; single dose 50 mg,72.00 h
same,CL/F,"[3]; single dose 100 mg, mean","24,617.9 mL/h"
same,Clast,"[3]; single dose 100 mg, mean",2.85 ng/mL
same,tlast,[3]; single dose 100 mg,95.00 h
same,CL/F,"[3]; single dose 150 mg, excluding one patient, mean (% CV)","^bMean (% CV) CL/F for the VEL 150 mg group (excluding one patient) was 31,403.8 (40.5) mL/h."
same,CL/F,"[3]; single dose 150 mg, mean","72,185.5 mL/h"
same,Clast,"[3]; single dose 150 mg, mean",2.23 ng/mL
same,tlast,[3]; single dose 150 mg,96.00 h
same,CL/F,"[3]; single dose 450 mg, mean","53,676.4 mL/h"
same,Clast,"[3]; single dose 450 mg, mean",3.28 ng/mL
same,tlast,[3]; single dose 450 mg,96.00 h
same,total impurities/degradation products,[4],0.0%
same,dissolution from tablets,[5],Incomplete dissolution
same,dissolution from tablets at 60 minutes,[5],complete dissolution
same,BCS Class,[6],BCS Class 4
same,"aqueous solubility, pH dependence",[6],pH-dependent
same,level of degradation products,[7],0.4%
same,loss after exposure to light,[7],up to 0.3%
"CC[C@@H]1[C@@H]2CN(C(=O)[C@H](C(C)(C)C)NC(=O)O[C@@H]3C[C@H]3CCCCC(F)(F)c3nc4ccc(OC)cc4nc3O2)[C@@H]1C(=O)N[C@]1(C(=O)NS(=O)(=O)C2(C)CC2)C[C@H]1C(F)F [voxilaprevir, (1aR,5S,8S,9S,10R,22aR)-5-tert-butyl-N-{(1R,2R)-2-(difluoromethyl)-1-[(1-methylcyclopropanesulfonyl)carbamoyl]cyclopropyl}-9-ethyl-18,18-difluoro-14-methoxy-3,6-dioxo-1,1a,3,4,5,6,9,10,18,19,20,21,22,22a-tetradecahydro-8H-7,10-methanocyclopropa[18,19][1,10,3,6]dioxadiazacyclononadecino[11,12-b]quinoxaline-8-carboxamide]",total impurities/degradation products,[1]; [11],0.7%
same,total impurities/degradation products,[1]; [12],0.0%
same,total impurities/degradation products,[1]; [13],0.0%
same,dissolution at 30 minutes,[2]; potency study Lot A,85%
same,dissolution at 30 minutes,[2]; potency study Lot B,91%
same,dissolution at 30 minutes,[2]; potency study Lots C and D,92%
same,voxilaprevir released at 30 minutes,[2]; tablets containing 0% w/w crystalline voxilaprevir,91%
same,voxilaprevir released at 30 minutes,[2]; tablets containing neat amorphous voxilaprevir free acid,76%
same,voxilaprevir released at 30 minutes,[2]; tablets containing voxilaprevir SSD,91%
same,voxilaprevir released at 30 minutes,[2]; tablets spiked with 5% w/w Form VIII or Form X,84%
same,voxilaprevir released at 30 minutes,[2]; tablets spiked with 10% w/w Form VIII or Form X,80%
same,voxilaprevir released at 30 minutes,[2]; tablets spiked with 20% w/w Form VIII or Form X,73%
same,dissolution from tablets,[5],Incomplete dissolution
same,dissolution from tablets at 60 minutes,[5],complete dissolution
same,BCS Class,[6],BCS Class 2
same,"aqueous solubility, pH dependence",[6],pH-dependent
same,level of degradation products,[7],0.0%
same,loss after exposure to light,[7],no change
same,total impurities/degradation products,[8],0.0%
"CC[C@@H]1[C@@H]2CN(C(=O)[C@H](C(C)(C)C)NC(=O)O[C@@H]3C[C@H]3CCCCC(F)(F)c3nc4ccc(OC)cc4nc3O2)[C@@H]1C(=O)N[C@]1(C(=O)NS(=O)(=O)C2(C)CC2)C[C@H]1C(F)F [voxilaprevir, Form VI, voxilaprevir]",Ctau,[9]; multiple dose 30 mg,1.9 ng/mL
same,Ctau,[9]; multiple dose 100 mg,5.7 ng/mL
same,Ctau,[9]; multiple dose 300 mg,10.0 ng/mL
same,steady-state concentrations achieved after,"[9]; once-daily dosing, all dose levels",7 days
same,t1/2,"[9]; single dose 300 mg, median",35.49 h
same,AUC(0-inf),[10],326 ng·h/mL
same,Cmax,[10]; read-out: Cmax,21.7 ng/mL
